Laboratory results as given in US20060069132A1, “Azolecarboxamide herbicides” (priority 2004, published 2006).

Experiments:
[1] = test system: canarygrass; test: Test C postemergence herbicide test; type: in vivo, Phalaris minor
Summary of the method: (§1)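 Scoring by eye, 12–14 days post-treatment, greenhouse-held plants vs. controls; 0 no effect, 100 complete control. Sprayed at 1–4 leaves (2–18 cm); paddy barnyardgrass at 2 leaves, flooded.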

[2] = test system: broadleaf signalgrass; test: Test E pre-/postemergence herbicide test; type: in vivo, Brachiaria platyphylla; details: Preemergence
Summary of the method: (§2)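 Pre-/postemergence spray, solvent + surfactant vehicle; post timing 1- to 4-leaf stage (2–18 cm). Greenhouse 12–14 d. Visual score 0 (no effect) to 100 (complete control) relative to controls.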

[3] = test system: Italian ryegrass; test: Test C postemergence herbicide test; type: in vivo, Lolium multiflorum
Summary of the method: as §1

[4] = test system: Canada horseweed; test: Test E pre-/postemergence herbicide test; type: in vivo, Erigeron Canadensis; details: Preemergence
Summary of the method: as §2

[5] = test system: large crabgrass; test: Test E pre-/postemergence herbicide test; type: in vivo, Digitaria sanguinalis; details: Preemergence
Summary of the method: as §2

[6] = test system: prickly sida; test: Test E pre-/postemergence herbicide test; type: in vivo, Sida spinosa; details: Preemergence
Summary of the method: as §2

[7] = test system: pitted morningglory; test: Test E pre-/postemergence herbicide test; type: in vivo, Ipomoea lacunosa; details: Preemergence
Summary of the method: as §2

[8] = test system: Italian ryegrass; test: Test E pre-/postemergence herbicide test; type: in vivo, Lolium multiflorum; details: Preemergence
Summary of the method: as §2

[9] = test system: goosegrass; test: Test E pre-/postemergence herbicide test; type: in vivo, Eleusine indica; details: Preemergence
Summary of the method: as §2

[10] = test system: winter barley; test: Test C postemergence herbicide test; type: in vivo, Hordeum vulgare
Summary of the method: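 Greenhouse test with a 12–14 day hold after application and visual comparison with controls. Emerged plants were 1- to 4-leaf stage (2–18 cm) when sprayed postemergence, and the paddy barnyardgrass was at 2 leaves under flooded conditions. 100 = complete control.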

[11] = test system: wheat; test: Test C postemergence herbicide test; type: in vivo, Triticum aestivum
Summary of the method: as §1

[12] = test system: downy bromegrass; test: Test E pre-/postemergence herbicide test; type: in vivo, Bromus tectorum; details: Preemergence
Summary of the method: as §2

[13] = test system: barnyardgrass; test: Test E pre-/postemergence herbicide test; type: in vivo, Echinochloa crus-galli; details: Preemergence
Summary of the method: as §2

[14] = Postemergence, 500 g ai/ha, scale 0 to 100
[15] = Postemergence, 250 g ai/ha, scale 0 to 100, 0 no effect, 100 complete control
[16] = postemergence, 125 g ai/ha, scale 0 to 100
[17] = postemergence, 62 g ai/ha, scale 0 to 100
[18] = 125 g ai/ha, scale 0 (no effect) to 100 (complete control)
[19] = 250 g ai/ha, scale 0 (no effect) to 100 (complete control)
[20] = 500 g ai/ha, scale 0 (no effect) to 100 (complete control)

CCNC(=O)c1cccc(NC(=O)c2cc(C(C)(C)C)nn2CC)n1 [Compound 144]
Canarygrass plant response rating [1, 14]: 50 | Plant response rating, Canarygrass [1, 15]: 40 | Plant response rating, Canarygrass [1, 16]: 40 | Plant response rating, Canarygrass [1, 17]: 40 | Plant response rating, Signalgrass ([2]; 62 g ai/ha, scale 0 to 100): 10 | Plant response rating, Signalgrass [2, 18]: 20 | Plant response rating, Signalgrass [2, 19]: 30 | Plant response rating, Signalgrass [2, 20]: 50 | Ryegrass, Italian plant response rating [3, 14]: 50 | Plant response rating, Ryegrass, Italian [3, 15]: 40 | Plant response rating, Ryegrass, Italian [3, 16]: 20 | Plant response rating, Ryegrass, Italian [3, 17]: 20 | Plant response rating, Horseweed ([4]; 62 g ai/ha, scale 0 to 100): 70 | Plant response rating, Horseweed [4, 18]: 100 | Plant response rating, Horseweed [4, 19]: 100 | Plant response rating, Horseweed [4, 20]: 100 | Plant response rating, Crabgrass, Large ([5]; 62 g ai/ha, scale 0 to 100): 0 | Plant response rating, Crabgrass, Large [5, 18]: 40 | Plant response rating, Crabgrass, Large [5, 19]: 50 | Plant response rating, Crabgrass, Large [5, 20]: 60 | Plant response rating, Prickly Sida ([6]; 62 g ai/ha, scale 0 to 100): 10 | Plant response rating, Prickly Sida [6, 18]: 90 | Plant response rating, Prickly Sida [6, 19]: 90 | Plant response rating, Prickly Sida [6, 20]: 95 | Plant response rating, Morningglory ([7]; 62 g ai/ha, scale 0 to 100): 0 | Plant response rating, Morningglory [7, 18]: 20 | Plant response rating, Morningglory [7, 19]: 20 | Plant response rating, Morningglory [7, 20]: 100 | Plant response rating, Ryegrass, Italian ([8]; 62 g ai/ha, scale 0 to 100): 10 | Plant response rating, Ryegrass, Italian [8, 18]: 60 | Plant response rating, Ryegrass, Italian [8, 19]: 80 | Plant response rating, Ryegrass, Italian [8, 20]: 95 | Plant response rating, Goosegrass ([9]; 62 g ai/ha, scale 0 to 100): 20 | Plant response rating, Goosegrass [9, 18]: 50 | Plant response rating, Goosegrass [9, 19]: 80 | Plant response rating, Goosegrass [9, 20]: 80 | Barley, Winter plant response rating [10, 14]: 40 | Plant response rating, Barley, Winter ([10]; Postemergence, 125 g ai/ha, scale 0 to 100, 0 no effect, 100 complete control): 20 | Plant response rating, Barley, Winter [10, 15]: 30 | Plant response rating, Barley, Winter ([10]; postemergence, 62 g ai/ha, scale 0 to 100 (0 no effect, 100 complete control)): 0 | Wheat plant response rating [11, 14]: 30 | Plant response rating, Wheat [11, 15]: 30 | Plant response rating, Wheat [11, 16]: 30 | Plant response rating, Wheat [11, 17]: 20 | Plant response rating, Bromegrass, Downy ([12]; 62 g ai/ha, scale 0 to 100): 20 | Plant response rating, Bromegrass, Downy [12, 18]: 50 | Plant response rating, Bromegrass, Downy [12, 19]: 60 | Plant response rating, Bromegrass, Downy [12, 20]: 80 | Plant response rating, Barnyardgrass ([13]; 62 g ai/ha, scale 0 to 100): 30 | Plant response rating, Barnyardgrass [13, 18]: 60 | Plant response rating, Barnyardgrass [13, 19]: 80 | Plant response rating, Barnyardgrass [13, 20]: 90

CCc1nn(C(C)C)nc1C(=O)Nc1cccc(C(=O)N(C)CC)c1 [Compound 386]
Plant response rating, Signalgrass ([2]; 125 g ai/ha, scale 0 to 100): 30 | Plant response rating, Signalgrass [2, 19]: 85 | Plant response rating, Horseweed ([4]; 125 g ai/ha, scale 0 to 100): 75 | Plant response rating, Horseweed [4, 19]: 95 | Plant response rating, Crabgrass, Large ([5]; 125 g ai/ha, scale 0 to 100): 95 | Plant response rating, Crabgrass, Large [5, 19]: 95 | Plant response rating, Prickly Sida ([6]; 125 g ai/ha, scale 0 to 100): 100 | Plant response rating, Prickly Sida [6, 19]: 100 | Plant response rating, Morningglory ([7]; 125 g ai/ha, scale 0 to 100): 20 | Plant response rating, Morningglory [7, 19]: 40 | Plant response rating, Ryegrass, Italian ([8]; 125 g ai/ha, scale 0 to 100): 60 | Plant response rating, Ryegrass, Italian [8, 19]: 95 | Plant response rating, Goosegrass ([9]; 125 g ai/ha, scale 0 to 100): 80 | Plant response rating, Goosegrass [9, 19]: 95 | Plant response rating, Bromegrass, Downy ([12]; 125 g ai/ha, scale 0 to 100): 10 | Plant response rating, Bromegrass, Downy [12, 19]: 40 | Plant response rating, Barnyardgrass ([13]; 125 g ai/ha, scale 0 to 100): 80 | Plant response rating, Barnyardgrass [13, 19]: 100
